Reference: US20060247439A1, “Mchir antagonists” (AstraZeneca AB, priority 2002, published 2006)

Each compound was assayed against T1, human Melanin concentrating hormone receptor 1 (MCH1r) (Homo sapiens, UniProt Q99705) (assay: MCH1 Receptor Radioligand Binding). Settings: membranes from HEK293 cells stably expressing human MCH1r; radioligand 125I-MCH.
T1 construct: expressed in transfected cells; membranes)
T1 sequence (Q99705 whole entry): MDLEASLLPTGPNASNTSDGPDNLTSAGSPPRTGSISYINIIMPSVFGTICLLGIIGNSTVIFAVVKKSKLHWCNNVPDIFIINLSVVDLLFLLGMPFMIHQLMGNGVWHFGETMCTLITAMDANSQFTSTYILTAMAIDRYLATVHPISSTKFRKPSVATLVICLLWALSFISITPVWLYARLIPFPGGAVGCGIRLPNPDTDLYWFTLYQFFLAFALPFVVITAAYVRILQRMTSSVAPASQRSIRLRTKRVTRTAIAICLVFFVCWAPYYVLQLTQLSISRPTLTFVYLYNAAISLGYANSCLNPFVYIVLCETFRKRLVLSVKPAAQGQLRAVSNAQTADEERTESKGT
Method: MCH1 Receptor Radioligand Binding.
Assays were performed on membranes prepared from HEK293 cells stably expressing the human Melanin concentrating hormone receptor 1 (MCH1r) (Lembo et al. Nature Cell Biol 1 267-271). Assays were performed in a 96-well plate format in a final reaction volume of 200 μl per well. Each well contained 6,1 μg of membrane proteins diluted in binding buffer (50 mM Tris, 3 mM MgCl2, 0.05% bovine serum albumin (BSA) and the radioligand ^125I-MCH (IM344 Amersham) was added to give 10 000 cpm (counts per Minute) per well Each well contained 2 μl of the appropriate concentration of competitive antagonist prepared in DMSO and left to stand at room temperature for 60 minutes. Non-specific binding was determined as that remaining following incubation with […] MCH (Melanin concentrating hormone, H-1482 Bachem). The reaction was terminated by transfer of the reaction to GF/A filters using a Micro96 Harvester (Skatron Instruments, Norway). Filters were washed with assay buffer; Radioligand retained on the filters was quantified using a1450 Microbeta TRILUX (Wallac, Finland).
Non-specific binding was subtracted from all values determined. Maximum binding was that determined in the absence of any competitor following subtraction of the value determined for non-specific binding. Binding of compounds at various concentrations was plotted according to the equation y=A+(B−A)/1+((C/x)ˆD))) and IC50 estimated where […]
A is the bottom plateau of the curve i.e. the final minimum y value
B is the top of the plateau of the curve i.e. the final maximum y value
C is the x value at the middle of the curve. This represents the log EC50 value when A+B=100 […]
x is the original known x values. y is the original known y values.
With `Clc1ccc(CNC2CCC(Nc3ccc4ccccc4n3)CC2)cc1Cl` (mixture of isomers) [Example 29, N-[(3,4-Dichlorophenyl)methyl]-N′-(2-quinolinyl)-1,4-cyclohexanediamine] the IC50 was 400 nM.
In the case of `COc1ccc2nc(NC3CCCC(NCc4cc5ccccc5o4)C3)cc(C)c2c1` (mixture of isomers) [Example 53, N-(1-benzofuran-2-ylmethyl)-N′-(6-methoxy-4-methylquinolin-2-yl)cyclohexane-1,3-diamine], the IC50 is reported as 560 nM.
Compound `COc1ccc2nc(NCCCNCc3ccsc3)cc(C)c2c1` [Example 2, N-(6-Methoxy-4-methyl-2-quinolinyl)-N′-(3-thienylmethyl)-1,3-propanediamine] has an IC50 of 10 nM.
